The source of these data is patent publication US6576592B1, “Herbicide composition” (Sumitomo Chemical Company, Limited, priority 1999, dated 2003).

The structures appear in SMILES notation. Structures can show the parent of a compound that is named as a salt.

For series [1], the system named is corn. As to the kind of experiment: Test Example 1: phytotoxicity to corn seeded after application. In kind it is in vivo. Also on record: key: “no harm” means that the phytotoxicity was unrecognizable or almost unrecognized; “small” means that a slight degree of phytotoxicity was recognized; “medium” means that a medium degree of phytotoxicity was recognized; “large” means that a large degree of phytotoxicity was recognized. The conditions noted are these: corn seeded after spraying, examined after 10 days. Here is the method: The phytotoxicity is evaluated like these, “no harm” means that the phytotoxicity was unrecognizable or almost unrecognized, “small” means that a slight degree of phytotoxicity was recognized, “medium” means that a medium degree of phytotoxicity was recognized, and “large” means that a large degree of phytotoxicity was recognized.
(§1) Plastic pots each having a diameter of 11 cm and a depth of 8 cm were filled with upland soil, and then buried tubers of yellow nutsedge. And test plants were given 26 days to grow in greenhouse.An emulsifiable concentrate of compound A which had been obtained by well mixing 5 parts of compound A, 6 parts of Sorpol 3005X (produced by Toho Chemical Industry, Co., Ltd.) and 89 parts of xylene, a formulated glyphosate product (trade name: Roundup; seller, Monsanto Japan Limited), and a mixture of the emulsifiable concentrate of compound A and the formulated glyphosate product were independently diluted in their prescribed amounts with water. Each dilution was uniformly sprayed over the plants with a small sprayer, and then corn was further seeded. After the application the test plants were grown in the greenhouse for further 10 days and then, herbicidal activity and phytotoxicity to corn were examined.

In series [2] the test system is yellow nutsedge. As to the kind of experiment: Test Example 1: foliar treatment of pot-grown yellow nutsedge in greenhouse, herbicidal activity. In kind it is in vivo, yellow nutsedge (Cyperus esculentus). The conditions noted are these: sprayed over plants grown 26 days, examined 10 days after application, index 0 to 10.
Excerpt: The values, “7”, “8”, “9”, and “10” of the herbicidal effect mean a excellent herbicidal effect.
as §1

Turning to `O=C(O)CNCP(=O)(O)O` [Glyphosate isopropylamine salt, N-(phosphonomethyl)glycine], in series [1] (dosage 560 g/ha), the “Phytotoxicity Corn” value was “no harm”. In series [2] (dosage 560 g/ha), the “Herbicidal activity Yellow nutsedge” value is reported as 1.

On to `COC(=O)C(C)Oc1cc(-n2c(=O)cc(C(F)(F)F)n(C)c2=O)c(F)cc1Cl` (stereo not shown) [Compound A, methyl 2-[2-chloro-4-fluoro-5-{3-methyl-2,6-dioxo-4-(trifluoromethyl)-1,2,3,6-tetrahydropyrimidin-1-yl}phenoxy]propionate], for which, in series [1] (dosage 120 g/ha), the “Phytotoxicity Corn” value is reported as “no harm”. Further, the “Herbicidal activity Yellow nutsedge” value in series [2] (dosage 120 g/ha) is recorded as 4.
